In brackets after ≈: the same amount, converted by molar mass. Like-named read-outs stand apart in the source and are kept apart here.
Key:
Type in all cases: physicochemical
[1] = True density of Solid Form A; conditions: lots of Solid Form A; A2 and A9 unmilled, A3 and A6/A7 milled
[2] = Particle size of batches of Solid Form A; conditions: batches of Solid Form A, milled or unmilled per batch
Source text: Primary particles from below 100 μm to around 500 μm in size, with soft agglomerates up to several millimeters, were observed. The D[4,3] of this material was 195 μm. This material was subsequently milled, to give far fewer large particles and an overall much smaller average primary particle size, giving a D[4,3] of 49.5 μm. See Table 8 for a comparison of particle size properties of various batches.

[3] = Mechanical properties of batches of Solid Form A; conditions: lots of Solid Form A; A2 and A9 unmilled, A3 and A6/A7 milled
[4] = VT-XRPD analysis of Solid Form B
Experimental: VT-XRPD analysis was carried out on a Philips X'Pert Pro Multipurpose diffractometer equipped with a temperature chamber. The samples were scanned between 4 and 35.99°2θ using Cu K radiation (α1λ=1.54060 Å; α2=1.54443 Å; β=1.39225 Å; α1:α2 ratio=0.5) running in Bragg-Brentano geometry (step size 0.008°2θ) using 40 kV/40 mA generator settings. Solid Form B was analyzed by VT-XRPD to assess changes in form upon heating. The sample was heated at 10° C./min and diffraction pattern collected at various temperatures (based on TG/DSC data).

[5] = Dynamic vapour sorption (DVS) assessment of Solid Form B
[6] = 7-day stability assessment of Solid Form B; conditions: 7 days; for HPLC purity (% rel. Area): input purity 100%
Experimental: 15 mg of Solid Form B was weighed into 3×1.5 mL vials. • One vial was left uncapped, placed inside a scintillation vial and stored at ambient conditions (ca. 20° C.). • One vial was left uncapped and placed inside a scintillation vial. This was placed in a stability oven at 40° C./75% RH. • One vial was capped and placed inside a scintillation vial. This was placed inside an oven at 80° C. After 7 days the samples were removed from their respective conditions, analyzed by XRPD and submitted for HPLC analysis.

[7] = VH-XRPD analysis of Solid Form B
Experimental: VH-XRPD analysis was carried out on a Philips X'Pert Pro Multipurpose diffractometer equipped with a humidity chamber. The samples were scanned between 4 and 35.99°2θ using Cu K radiation (α1λ=1.54060 Å; α2=1.54443 Å; β=1.39225 Å; α1:α2 ratio=0.5) running in Bragg-Brentano geometry (step size 0.008°2θ) using 40 kV/40 mA generator settings. Variable humidity XRPD was carried out using the following method: A diffractogram was collected once each targeted % RH was reached and after the reported time had elapsed (Table 14 below). After 20 hours at 2% RH, some P2O5 was introduced within the stage chamber with the aim of further dry the environment. The sample was kept at these conditions for further 16 hours, during which a diffractogram was collected ever hour.

[8] = Thermodynamic solubility assessment of Solid Form B; conditions: for solubility thermodynamic at 24 h: thermodynamic from solid; for solubility thermodynamic at 24 h / XRPD Pattern of residual solid: 24 hours

Structure (SMILES): CC1CN(Cc2ncccn2)CC1c1nc2c(cnn2C2CCOCC2)c(=O)[nH]1 (stereo not shown) [A2]
- True density (g/cm3), Value [1]: 1.28 g/cm3
- Particle size D[4, 3] [2]: 144 μm
- Particle size D[v, 0.1] [2]: 45.6 µm
- Particle size D[v, 0.9] [2]: 247 µm
- Brittle fracture index, Rating [3]: Low
- Brittle fracture index, Value [3]: 0.0486
- Brittle/viscoelastic bonding index (x105), Value [3]: 2.61
- Brittle/viscoelastic bonding index, Rating [3]: Poor
- Compression stress (MPa), Value [3]: 58.8 MPa
- Compression stress, Rating [3]: Moderate
- Compromised Tensile strength (MPa), Value [3]: 0.274 MPa
- Solid fraction, Value [3]: 0.87
- Tensile strength (MPa), Value [3]: 0.3 MPa
- Tensile strength, Rating [3]: Low

Structure (SMILES): CC1CN(Cc2ncccn2)CC1c1nc2c(cnn2C2CCOCC2)c(=O)[nH]1 (stereo not shown) [A3]
- True density (g/cm3), Value [1]: 1.29 g/cm3
- Particle size D[4, 3] [2]: 60.2 μm
- Particle size D[v, 0.1] [2]: 10.5 µm
- Particle size D[v, 0.9] [2]: 126 µm
- Brittle fracture index, Rating [3]: Low
- Brittle fracture index, Value [3]: 0.139
- Brittle/viscoelastic bonding index (x105), Value [3]: 8.44
- Brittle/viscoelastic bonding index, Rating [3]: Marginal
- Compression stress (MPa), Value [3]: 67.9 MPa
- Compression stress, Rating [3]: Moderate
- Compromised Tensile strength (MPa), Value [3]: 0.488 MPa
- Solid fraction, Value [3]: 0.857
- Tensile strength (MPa), Value [3]: 0.624 MPa
- Tensile strength, Rating [3]: Moderate

Structure (SMILES): CC1CN(Cc2ncccn2)CC1c1nc2c(cnn2C2CCOCC2)c(=O)[nH]1 (stereo not shown) [A9]
- True density (g/cm3), Value [1]: 1.29 g/cm3
- Particle size D[4, 3] [2]: 195 μm
- Particle size D[v, 0.1] [2]: 20.6 µm
- Particle size D[v, 0.9] [2]: 362 µm
- Brittle fracture index, Rating [3]: Very low
- Brittle fracture index, Value [3]: −0.077
- Brittle/viscoelastic bonding index (x105), Value [3]: 1.95
- Brittle/viscoelastic bonding index, Rating [3]: Poor
- Compression stress (MPa), Value [3]: 52.5 MPa
- Compression stress, Rating [3]: Moderate
- Compromised Tensile strength (MPa), Value [3]: 0.302 MPa
- Dynamic indentation hardness (MPa), Value [3]: 63.6 MPa
- Dynamic indentation hardness [ductility rating], Rating [3]: High
- Solid fraction, Value [3]: 0.85
- Tensile strength (MPa), Value [3]: 0.255 MPa
- Tensile strength, Rating [3]: Very low
- Worst case bonding index (x102), Value [3]: 0.401
- Worst case bonding index, Rating [3]: Moderate

Structure (SMILES): C[C@@H]1CN(Cc2ncccn2)C[C@H]1c1nc2c(cnn2C2CCOCC2)c(=O)[nH]1 [Solid Form B, 6-((3S,4S)-4-methyl-1-(pyrimidin-2-ylmethyl)pyrrolidin-3-yl)-1-(tetrahydro-2H-pyran-4-yl)-1,5-dihydro-4H-pyrazolo[3,4-d]pyrimidin-4-one]
- XRPD (form observed on heating) ([4]; 30 °C, hold 0 mins (last step, after 135 °C)): Solid Form A
- XRPD (form observed on heating) ([4]; 30 °C, hold 0 mins (start), heated at 10 °C/min): Solid Form B
- XRPD (form observed on heating) ([4]; 85 °C, hold 0 mins): Solid Form C
- XRPD (form observed on heating) ([4]; 85 °C, hold 5 mins): Solid Form C
- Solid form observed upon heating (VT-XRPD) ([4]; 130° C.): mixture of Solid Form A and C
- XRPD (form observed on heating) ([4]; 130 °C, hold 0 mins): Solid Form A/C
- Solid form observed upon heating (VT-XRPD) ([4]; 135° C.): consistent with Solid Form A
- XRPD (form observed on heating) ([4]; 135 °C, hold 0 mins): Solid Form A
- XRPD (form observed on heating) ([4]; 135 °C, hold 10 mins): Solid Form A
- Solid form observed upon heating (VT-XRPD) ([4]; heated to 85° C., 10° C./min): Solid Form C
- Uptake (DVS) ([5]; at 80% RH): 4.3 wt. %
- Mass loss on de-sorption/uptake on sorption (DVS) ([5]; between 0 and 10% RH): ca. 2.6 wt. %
- Mass loss on de-sorption/uptake on sorption (DVS), water equivalents ([5]; between 0 and 10% RH): 0.6 eq. water
- Uptake (DVS) ([5]; between 40 and 80% RH, first sorption cycle): 0.2 wt. %
- XRPD form after DVS analysis ([5]; post DVS): consistent with Solid Form B with traces of Solid Form C
- Solid form after storage (XRPD) ([6]; 40° C./75% RH): retained
- XRPD (form after storage) ([6]; 40° C./75% RH): Solid Form B
- HPLC purity (% rel. Area) ([6]; 40° C./75% RH): 100 % rel. Area
- Solid form after storage (XRPD) ([6]; 80° C.): converted to a mixture of Solid Form A and Solid Form C
- HPLC purity (% rel. Area) ([6]; 80° C.): 100 % rel. Area
- XRPD (form after storage) ([6]; Ambient Light): Solid Form B
- HPLC purity (% rel. Area) ([6]; Ambient Light): 100 % rel. Area
- Solid form after storage (XRPD) ([6]; ambient temperature (ca. 20° C.)): retained
- Purity change (HPLC) ([6]; ambient, 40° C./75% RH and 80° C.): no drop in purity
- XRPD (form at variable humidity) ([7]; 2% RH, 0.5 hours): Solid Form B
- XRPD (form at variable humidity) ([7]; 2% RH, 20 hours): Solid Form B
- XRPD (form at variable humidity) ([7]; 10% RH, 1 hour): Solid Form B
- XRPD (form at variable humidity) ([7]; 40% RH, 0 hours (start)): Solid Form B
- XRPD (form at variable humidity) ([7]; 40% RH, 0.5 hours): Solid Form B
- XRPD (form at variable humidity) ([7]; 90% RH, 0.5 hours): Solid Form B
- Change in form under variable humidity (VH-XRPD) ([7]; variable % RH, down to 2% RH and with P2O5): no change in form
- Solid form after solubility test (XRPD) ([8]; across the pH range, 25° C.): retained
- solubility thermodynamic at 24 h ([8]; aqueous buffer, pH 4.5 buffer, 25° C., read-out: HPLC conc. (mg/mL), thermodynamic solubility): 162 mg/mL (≈ 411 mM)
- solubility thermodynamic at 24 h ([8]; aqueous buffer, pH 6.8 buffer, 25° C., read-out: HPLC conc. (mg/mL), thermodynamic solubility): 21.8 mg/mL (≈ 55.1 mM)
- solubility thermodynamic at 24 h ([8]; buffer, aqueous buffer, pH 4.5, 25° C., read-out: Thermodynamic solubility): > 150 mg/mL
- XRPD Pattern of residual solid ([8]; pH 1.2 buffer, 25° C.): Solid Form B
- XRPD Pattern of residual solid ([8]; pH 4.5 buffer, 25° C.): Solid Form B
- XRPD Pattern of residual solid ([8]; pH 6.8 buffer, 25° C.): Solid Form B
- solubility thermodynamic at 24 h ([8]; simulated gastric fluid, pH 1.2 buffer, 25° C., read-out: HPLC conc. (mg/mL), thermodynamic solubility): 46.7 mg/mL (≈ 118 mM)

Reference: patent publication US12012412B2, “Solid forms of pyrazolo[3,4-d]pyrimidine compounds” (Pfizer Inc., priority 2021, dated 2024)
